# Source: ChEMBL document CHEMBL1133412, “Rational design, synthesis and structure-activity relationships of antitumor (E)-2-benzylidene-1-tetralones and (E)-2-benzylidene-1-indanones” (Bioorg Med Chem Lett, 2000)
# Active and inactive are the calls of the source. No cut-off for these calls is given here.
# What was measured:
# Format in all cases: functional, cell-based
# Jurkat = experiment: In vitro test for antitumor activity against human Jurkat cell line using a formazan dye (MTT) conversion assay.
# NCI-H292 [1] = experiment: Cytotoxicity was evaluated against H292 tumor cell lines; Inactive; details: Homo sapiens
# WIL2 [2] = experiment: Cytotoxicity was evaluated against WIL2 tumor cell lines; Inactive; details: Homo sapiens
# NIH3T3 [3] = experiment: Cytotoxicity was evaluated against NIH3T3 tumor cell lines; Inactive; details: Mus musculus
# MCF7 [4] = experiment: Cytotoxicity was evaluated against MCF-7 tumor cell lines; Inactive; details: Homo sapiens
# WI-38 [5] = experiment: Cytotoxicity was evaluated against WI38 tumor cell lines; Inactive; details: Homo sapiens
# B16 [6] = experiment: Cytotoxicity was evaluated against B16 tumor cell lines; Inactive; details: Mus musculus
# A549 [7] = experiment: Cytotoxicity was evaluated against A549 tumor cell lines; Inactive; details: Homo sapiens
# K562 [8] = experiment: Cytotoxicity was evaluated against K562 tumor cell lines; Inactive; details: Homo sapiens
# NCI-H596 [9] = experiment: Cytotoxicity was evaluated against H596 tumor cell lines; Inactive; details: Homo sapiens
# CCRF-CEM [10] = experiment: Cytotoxicity was evaluated against CEM tumor cell lines; Inactive; details: Homo sapiens
# HL-60 [11] = experiment: Cytotoxicity was evaluated against HL-60 tumor cell lines; Inactive; details: Homo sapiens
# L1210 [12] = experiment: Cytotoxicity was evaluated against L1210 tumor cell lines; Inactive; details: Mus musculus
# MOLT-4 [13] = experiment: Cytotoxicity was evaluated against Molt-4 tumor cell lines; Inactive; details: Homo sapiens
# L1210 [14] = experiment: Cytotoxicity evaluated against L1210 tumor cell lines; Significant activity; details: Mus musculus
# NCI-H596 [15] = experiment: Cytotoxicity evaluated against H596 tumor cell lines; Significant activity; details: Homo sapiens
# HL-60 [16] = experiment: Cytotoxicity evaluated against HL-60 tumor cell lines; Significant activity; details: Homo sapiens
# MOLT-4 [17] = experiment: Cytotoxicity was evaluated against Molt-4 tumor cell lines; details: Homo sapiens
# NCI-H292 [18] = experiment: Cytotoxicity evaluated against H292 tumor cell lines; Significant activity; details: Homo sapiens
# NIH3T3 [19] = experiment: Cytotoxicity evaluated against NIH3T3 tumor cell lines; Significant activity; details: Mus musculus
# B16 [20] = experiment: Cytotoxicity was evaluated against B16 tumor cell lines; Significant activity; details: Mus musculus
# CCRF-CEM [21] = experiment: Cytotoxicity evaluated against CEM tumor cell lines; Significant activity; details: Homo sapiens
# K562 [22] = experiment: Cytotoxicity evaluated against K562 tumor cell lines; Significant activity; details: Homo sapiens
# MCF7 [23] = experiment: Cytotoxicity evaluated against MCF-7 tumor cell lines; Significant activity; details: Homo sapiens
# WIL2 [24] = experiment: Cytotoxicity evaluated against WIL2 tumor cell lines; Significant activity; details: Homo sapiens
# WI-38 [25] = experiment: Cytotoxicity evaluated against WI38 tumor cell lines; Significant activity; details: Homo sapiens
# A549 [26] = experiment: Cytotoxicity evaluated against A549 tumor cell lines; significant activity; details: Homo sapiens
SMILES,IC50 (Jurkat) [µM],Cytotoxicity (NCI-H292 [1]),Cytotoxicity (WIL2 [2]),Cytotoxicity (NIH3T3 [3]),Cytotoxicity (MCF7 [4]),Cytotoxicity (WI-38 [5]),Cytotoxicity (B16 [6]),Cytotoxicity (L1210 [14]),Cytotoxicity (NCI-H596 [15]),Cytotoxicity (HL-60 [16]),Cytotoxicity (MOLT-4 [17]),Cytotoxicity (NCI-H292 [18]),Cytotoxicity (NIH3T3 [19]),Cytotoxicity (B16 [20]),Cytotoxicity (CCRF-CEM [21]),Cytotoxicity (K562 [22]),Cytotoxicity (MCF7 [23]),Cytotoxicity (WIL2 [24]),Cytotoxicity (WI-38 [25]),Cytotoxicity (A549 [26]),other results
COc1ccc(/C=C2\CCc3cc(OC)c(OC)cc3C2=O)c(OC)c1,> 50,inactive,inactive,inactive,inactive,inactive,inactive,,,,,,,,,,,,,,Cytotoxicity (A549 [7]): inactive; Cytotoxicity (K562 [8]): inactive; Cytotoxicity (NCI-H596 [9]): inactive; Cytotoxicity (CCRF-CEM [10]): inactive; Cytotoxicity (HL-60 [11]): inactive; Cytotoxicity (L1210 [12]): inactive; Cytotoxicity (MOLT-4 [13]): inactive
COc1cc2c(cc1OC)C(=O)/C(=C/c1ccc(O)c(C(=O)O)c1)CC2,> 50,inactive,inactive,inactive,inactive,inactive,inactive,,,,,,,,,,,,,,Cytotoxicity (A549 [7]): inactive; Cytotoxicity (K562 [8]): inactive; Cytotoxicity (NCI-H596 [9]): inactive; Cytotoxicity (CCRF-CEM [10]): inactive; Cytotoxicity (HL-60 [11]): inactive; Cytotoxicity (L1210 [12]): inactive; Cytotoxicity (MOLT-4 [13]): inactive
COc1ccc2c(c1)C(=O)/C(=C/c1cc(C)c(O)c(C)c1)C2,> 50,inactive,inactive,inactive,inactive,inactive,inactive,,,,,,,,,,,,,,Cytotoxicity (A549 [7]): inactive; Cytotoxicity (K562 [8]): inactive; Cytotoxicity (NCI-H596 [9]): inactive; Cytotoxicity (CCRF-CEM [10]): inactive; Cytotoxicity (HL-60 [11]): inactive; Cytotoxicity (L1210 [12]): inactive; Cytotoxicity (MOLT-4 [13]): inactive
Cc1cc(/C=C2\Cc3cc4c(cc3C2=O)OCO4)cc(C)c1O,> 50,inactive,inactive,inactive,inactive,inactive,inactive,,,,,,,,,,,,,,Cytotoxicity (A549 [7]): inactive; Cytotoxicity (K562 [8]): inactive; Cytotoxicity (NCI-H596 [9]): inactive; Cytotoxicity (CCRF-CEM [10]): inactive; Cytotoxicity (HL-60 [11]): inactive; Cytotoxicity (L1210 [12]): inactive; Cytotoxicity (MOLT-4 [13]): inactive
O=C1/C(=C/c2cc(Cl)cc(Cl)c2)Cc2cc(O)c(O)cc21,> 50,inactive,inactive,inactive,inactive,inactive,inactive,,,,,,,,,,,,,,Cytotoxicity (A549 [7]): inactive; Cytotoxicity (K562 [8]): inactive; Cytotoxicity (NCI-H596 [9]): inactive; Cytotoxicity (CCRF-CEM [10]): inactive; Cytotoxicity (HL-60 [11]): inactive; Cytotoxicity (L1210 [12]): inactive; Cytotoxicity (MOLT-4 [13]): inactive
COc1ccccc1/C=C1\CCc2cc(OC)c(OC)cc2C1=O,> 50,inactive,inactive,inactive,inactive,inactive,inactive,,,,,,,,,,,,,,Cytotoxicity (A549 [7]): inactive; Cytotoxicity (K562 [8]): inactive; Cytotoxicity (NCI-H596 [9]): inactive; Cytotoxicity (CCRF-CEM [10]): inactive; Cytotoxicity (HL-60 [11]): inactive; Cytotoxicity (L1210 [12]): inactive; Cytotoxicity (MOLT-4 [13]): inactive
COc1cc2c(c(N)c1OC)C(=O)/C(=C/c1cc(C)c(N)c(C)c1)C2,0.0235,,,,,,,Significant activity,Significant activity,Significant activity,Significant activity,Significant activity,Significant activity,Significant activity,Significant activity,Significant activity,Significant activity,Significant activity,Significant activity,Significant activity,
COc1cc2c(cc1OC)C(=O)/C(=C/c1cc(C)cc(C)c1)CC2,4,,,,,,,Significant activity,Significant activity,Significant activity,Significant activity,Significant activity,Significant activity,Significant activity,Significant activity,Significant activity,Significant activity,Significant activity,Significant activity,Significant activity,
COc1cc2c(cc1OC)C(=O)/C(=C/c1cc(C)c(N)c(C)c1)C2,0.055,,,,,,,Significant activity,Significant activity,Significant activity,Significant activity,Significant activity,Significant activity,Significant activity,Significant activity,Significant activity,Significant activity,Significant activity,Significant activity,Significant activity,
COc1cc2c(cc1OC)C(=O)/C(=C/c1ccc(O)cc1)CC2,19,,,,,,,Significant activity,Significant activity,Significant activity,Significant activity,Significant activity,Significant activity,Significant activity,Significant activity,Significant activity,Significant activity,Significant activity,Significant activity,Significant activity,
COc1cc2c(cc1O)C/C(=C\c1cc(C)c(O)c(C)c1)C2=O,0.53,,,,,,,Significant activity,Significant activity,Significant activity,Significant activity,Significant activity,Significant activity,Significant activity,Significant activity,Significant activity,Significant activity,Significant activity,Significant activity,Significant activity,
COc1cc2c(cc1OC)C(=O)/C(=C/c1cc(C)c(O)c(C)c1)CC2,4.8,,,,,,,Significant activity,Significant activity,Significant activity,Significant activity,Significant activity,Significant activity,Significant activity,Significant activity,Significant activity,Significant activity,Significant activity,Significant activity,Significant activity,
COc1cc2c(cc1OC)C(=O)/C(=C/c1cc([N+](=O)[O-])ccc1O)C2,14.5,,,,,,,Significant activity,Significant activity,Significant activity,Significant activity,Significant activity,Significant activity,Significant activity,Significant activity,Significant activity,Significant activity,Significant activity,Significant activity,Significant activity,
COc1cc2c(cc1OC)C(=O)/C(=C/c1cc(F)cc(F)c1)C2,19,,,,,,,Significant activity,Significant activity,Significant activity,Significant activity,Significant activity,Significant activity,Significant activity,Significant activity,Significant activity,Significant activity,Significant activity,Significant activity,Significant activity,
COc1cc2c(cc1OC)C(=O)/C(=C/c1cc(Cl)cc(Cl)c1)CC2,7,,,,,,,Significant activity,Significant activity,Significant activity,Significant activity,Significant activity,Significant activity,Significant activity,Significant activity,Significant activity,Significant activity,Significant activity,Significant activity,Significant activity,
